The record followed here is ChEMBL document CHEMBL3822409, “Synthesis and antitubercular activity of new 1,3,4-oxadiazoles bearing pyridyl and thiazolyl scaffolds” (Bioorg Med Chem Lett, 2016).

Experiment [1] has as its system Mycobacterium tuberculosis variant bovis BCG. Description: Antimycobacterial activity against active stage of Mycobacterium bovis BCG ATCC 35734 measured on day 8 by nitrate reductase assay. Particulars: ATCC 35734, 192 h. The class given is functional, organism-based.
For experiment [2] the test system is unchanged. Description: Antimycobacterial activity against dormant stage of Mycobacterium bovis BCG ATCC 35734 measured on day 12 by nitrate reductase assay. Type of experiment: functional, organism-based. To be noted: ATCC 35734, 288 h.

Converted amounts (≈) assume the structure as drawn.

The term IC50 denotes the point on the concentration scale where inhibition reaches its midpoint. A higher IC50 goes with weaker potency. One may read the MIC as the lowest concentration found to suppress growth. On to `Cc1nc(-c2cccnc2)sc1-c1nnc(-c2ccccc2)o1`, for which, in experiment [1], the IC50 is > 30 µg/mL and the MIC was > 30 µg/mL. In experiment [2], the IC50 is > 30 µg/mL and the MIC is > 30 µg/mL.
Take `Cc1nc(-c2cccnc2)sc1-c1nnc(-c2ccc(O)cc2)o1`: the 50% inhibitory concentration (IC50) in experiment [1] and in experiment [2] was > 30 µg/mL throughout. Moreover, the MIC in experiment [1] and in experiment [2] was > 30 µg/mL throughout.
As to `Cc1nc(-c2cccnc2)sc1-c1nnc(-c2ccc([N+](=O)[O-])cc2)o1`, the figures for the half-maximal inhibitory concentration (IC50) in experiment [1] and in experiment [2] were 22.5 µg/mL (≈ 61.6 µM) and 24.9 µg/mL (≈ 68.2 µM), respectively. Besides, the MIC in experiment [1] and in experiment [2] was > 30 µg/mL throughout.
With `Cc1nc(-c2cccnc2)sc1-c1nnc(-c2cccc(Cl)c2Cl)o1`, in experiment [1], the IC50 was > 30 µg/mL and the MIC is > 30 µg/mL. Also, in experiment [2], the 50% inhibitory concentration (IC50) was > 30 µg/mL and the MIC is > 30 µg/mL.
Turning to `COc1ccccc1-c1nnc(-c2sc(-c3cccnc3)nc2C)o1`, the concentration for half-maximal inhibition (IC50) in experiment [1] worked out at 1.46 µg/mL (≈ 4.17 µM); in experiment [2] it was 1.8 µg/mL (≈ 5.14 µM). Besides, the MIC in experiment [1] worked out at 2.65 µg/mL (≈ 7.56 µM); in experiment [2], 3.95 µg/mL (≈ 11.3 µM).
Consider `Cc1ccc(-c2nnc(-c3sc(-c4cccnc4)nc3C)o2)cc1`, for which, in experiment [1], it took 14.2 µg/mL (≈ 42.6 µM) to reach half-maximal inhibition (IC50) and the MIC was > 30 µg/mL. Besides, in experiment [2], the half-inhibitory concentration (IC50) came to 15.2 µg/mL (≈ 45.5 µM) and the MIC is > 30 µg/mL.
Regarding `Cc1nc(-c2cccnc2)sc1-c1nnc(-c2ccncc2)o1`, in experiment [1], 24.7 µg/mL (≈ 76.8 µM) corresponded to half-maximal inhibition (IC50) and the MIC is 40 µg/mL (≈ 125 µM). In experiment [2], this compound registered a half-inhibitory concentration (IC50) of 28 µg/mL (≈ 87 µM) and a minimum inhibitory concentration (MIC) of 42.2 µg/mL (≈ 131 µM).
In experiment [1], `Cc1ccccc1-c1nnc(-c2sc(-c3cccnc3)nc2C)o1` came in with a 50% inhibitory concentration (IC50) of 2.69 µg/mL (≈ 8.04 µM) and a minimal inhibitory concentration (MIC) of 5.84 µg/mL (≈ 17.5 µM). In experiment [2], 1.44 µg/mL (≈ 4.31 µM) corresponded to half-maximal inhibition (IC50) and the MIC came out at 4.91 µg/mL (≈ 14.7 µM).
As for `Cc1nc(-c2cccnc2)sc1-c1nnc(-c2ccccc2Cl)o1`, in experiment [1], half-maximal inhibition (IC50) required 2.62 µg/mL (≈ 7.38 µM) and 5.16 µg/mL (≈ 14.5 µM) was the least that counted as inhibitory (MIC). In experiment [2], this compound yielded a half-inhibitory concentration (IC50) of 1.47 µg/mL (≈ 4.14 µM) and an MIC of 4.77 µg/mL (≈ 13.4 µM).
On to `Cc1cccc(-c2nnc(-c3sc(-c4cccnc4)nc3C)o2)c1`, for which the half-inhibitory concentration (IC50) in experiment [1] and in experiment [2] was > 30 µg/mL throughout. Also, the minimum inhibitory concentration (MIC) in experiment [1] and in experiment [2] was > 30 µg/mL in each case.
In the case of `Cc1nc(-c2cccnc2)sc1-c1nnc(-c2ccc(Br)cc2)o1`, the IC50 in experiment [1] and in experiment [2] was > 30 µg/mL throughout. Further, the minimum inhibitory concentration (MIC) in experiment [1] and in experiment [2] was > 30 µg/mL each time.
Regarding `Cc1nc(-c2cccnc2)sc1-c1nnc(Cc2ccccc2)o1`, the IC50 in experiment [1] is 7.2 µg/mL (≈ 21.5 µM); in experiment [2], 5.26 µg/mL (≈ 15.7 µM). In addition, the minimum inhibitory concentration (MIC) worked out at 11.3 µg/mL (≈ 33.8 µM) in experiment [1] and 10.4 µg/mL (≈ 31 µM) in experiment [2].
On the same counts, the results for `Cc1nc(-c2cccnc2)sc1-c1nnc(-c2cccnc2)o1` are 24.5 µg/mL (≈ 76.2 µM), 56.3 µg/mL (≈ 175 µM), 40.4 µg/mL (≈ 126 µM) and 94.9 µg/mL (≈ 295 µM).
For `Cc1nc(-c2cccnc2)sc1-c1nnc(-c2ccccc2[N+](=O)[O-])o1` the same measures were 1.68 µg/mL (≈ 4.6 µM), 3.55 µg/mL (≈ 9.72 µM), 2.56 µg/mL (≈ 7.01 µM) and 5.89 µg/mL (≈ 16.1 µM).
For `Cc1nc(-c2cccnc2)sc1-c1nnc(-c2ccc(Cl)cc2)o1` the same measures were > 30 µg/mL, > 30 µg/mL, > 30 µg/mL and > 30 µg/mL.
In experiment [1], `CO[C@H]1/C=C/O[C@@]2(C)Oc3c(C)c(O)c4c(O)c(c(/C=N/N5CCN(C)CC5)c(O)c4c3C2=O)NC(=O)/C(C)=C\C=C\[C@H](C)[C@H](O)[C@@H](C)[C@@H](O)[C@@H](C)[C@H](OC(C)=O)[C@@H]1C` [RIFAMPIN] returned a half-maximal inhibitory concentration (IC50) of 0.003 µg/mL (≈ 0.00365 µM) and a minimum inhibitory concentration (MIC) of 0.08 µg/mL (≈ 0.0972 µM). In experiment [2], this compound displayed a half-maximal inhibitory concentration (IC50) of 0.0027 µg/mL (≈ 0.00328 µM) and a minimum inhibitory concentration (MIC) of 0.05 µg/mL (≈ 0.0608 µM).
